Measurements published in patent US20230085307A1, “PYRIDAZINONE COMPOUND AND HERBICIDE” (NISSAN CHEMICAL CORPORATION, priority 2019, published 2023).

Tests used:
windgrass [1] = experiment: Test Example 4: herbicidal effect by soil treatment (Table 19, symbol L); assay type: in vivo, windgrass (Apera spica-venti); conditions: amount of applied herbicide 320 g/ha
Summary of the method: (§1)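 In this soil treatment, the formulated compound reached the seeds only through the soil: seeds were buried about 1.5 cm deep in sterilized diluvial soil, then the diluted emulsion was sprayed over the surface. After three weeks at 25° C. to 30° C. in a greenhouse, effects were graded on criteria from an earlier test.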

velvetleaf [2] = experiment: Test Example 4: herbicidal effect by soil treatment (Table 19, symbol M); assay type: in vivo, velvetleaf (Abutilon theophrasti); conditions: amount of applied herbicide 320 g/ha
Summary of the method: as §1

southern crabgrass [3] = experiment: Test Example 5: herbicidal effect by foliage application, plastic box (Table 20, symbol F); assay type: in vivo, southern crabgrass (Digitaria ciliaris); conditions: 320 g/ha, foliage application after 14-day growth, evaluated three weeks after application
Summary of the method: (§2)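 Plants were sown into sterilized diluvial soil under about 1.5 cm cover and kept in a greenhouse at 25° C. to 30° C. Fourteen days on, foliage received an even spray of the diluted emulsion. Herbicidal or crop effect was judged three weeks afterwards.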

chickweed [4] = experiment: Test Example 5: herbicidal effect by foliage application, plastic box (Table 20, symbol P); assay type: in vivo, common chickweed (Stellaria media); conditions: 320 g/ha, foliage application after 14-day growth, evaluated three weeks after application
Summary of the method: as §2

southern crabgrass [5] = experiment: Test Example 4: herbicidal effect by soil treatment (Table 19, symbol F); assay type: in vivo, southern crabgrass (Digitaria ciliaris); conditions: amount of applied herbicide 320 g/ha
Summary of the method: as §1

velvetleaf [6] = experiment: Test Example 5: herbicidal effect by foliage application, plastic box (Table 20, symbol M); assay type: in vivo, velvetleaf (Abutilon theophrasti); conditions: 320 g/ha, foliage application after 14-day growth, evaluated three weeks after application
Summary of the method: as §2

wild oat [7] = experiment: Test Example 4: herbicidal effect by soil treatment (Table 19, symbol I); assay type: in vivo, wild oat (Avena fatua); conditions: amount of applied herbicide 320 g/ha
Summary of the method: as §1

green foxtail [8] = experiment: Test Example 4: herbicidal effect by soil treatment (Table 19, symbol G); assay type: in vivo, green foxtail (Setaria viridis); conditions: amount of applied herbicide 320 g/ha
Summary of the method: as §1

blackgrass [9] = experiment: Test Example 5: herbicidal effect by foliage application, plastic box (Table 20, symbol J); assay type: in vivo, blackgrass (Alopecurus myosuroides); conditions: 320 g/ha, foliage application after 14-day growth, evaluated three weeks after application
Summary of the method: as §2

rice flat sedge = experiment: Test Example 3: herbicidal effect by foliage application, Wagner pot (Table 18, symbol E); assay type: in vivo, rice flat sedge (Cyperus iria); conditions: 320 g/ha
Summary of the method: (§3)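 Plants were sown in alluvial soil held under 0.1–0.5 cm standing water and grown 14 days in a greenhouse at 25–30 °C. An emulsifiable formulation, water-diluted to the set dose, was then sprayed onto the foliage, and effects were scored three weeks later using previously defined criteria.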

wild oat [10] = experiment: Test Example 5: herbicidal effect by foliage application, plastic box (Table 20, symbol I); assay type: in vivo, wild oat (Avena fatua); conditions: 320 g/ha, foliage application after 14-day growth, evaluated three weeks after application
Summary of the method: as §2

barnyard grass [11] = experiment: Test Example 4: herbicidal effect by soil treatment (Table 19, symbol H); assay type: in vivo, barnyard grass (Echinochloa crus-galli); conditions: amount of applied herbicide 320 g/ha
Summary of the method: as §1

Italian ryegrass [12] = experiment: Test Example 4: herbicidal effect by soil treatment (Table 19, symbol K); assay type: in vivo, Italian ryegrass (Lolium multiflorum); conditions: amount of applied herbicide 320 g/ha
Summary of the method: as §1

blackgrass [13] = experiment: Test Example 4: herbicidal effect by soil treatment (Table 19, symbol J); assay type: in vivo, blackgrass (Alopecurus myosuroides); conditions: amount of applied herbicide 320 g/ha
Summary of the method: as §1

Italian ryegrass [14] = experiment: Test Example 5: herbicidal effect by foliage application, plastic box (Table 20, symbol K); assay type: in vivo, Italian ryegrass (Lolium multiflorum); conditions: 320 g/ha, foliage application after 14-day growth, evaluated three weeks after application
Summary of the method: as §2

lambsquarters [15] = experiment: Test Example 5: herbicidal effect by foliage application, plastic box (Table 20, symbol O); assay type: in vivo, lambsquarters (Chenopodium album); conditions: 320 g/ha, foliage application after 14-day growth, evaluated three weeks after application
Summary of the method: as §2

lambsquarters [16] = experiment: Test Example 4: herbicidal effect by soil treatment (Table 19, symbol O); assay type: in vivo, lambsquarters (Chenopodium album); conditions: amount of applied herbicide 320 g/ha
Summary of the method: as §1

redroot pigweed [17] = experiment: Test Example 5: herbicidal effect by foliage application, plastic box (Table 20, symbol N); assay type: in vivo, redroot pigweed (Amaranthus retroflexus); conditions: 320 g/ha, foliage application after 14-day growth, evaluated three weeks after application
Summary of the method: as §2

persian speedwell [18] = experiment: Test Example 4: herbicidal effect by soil treatment (Table 19, symbol R); assay type: in vivo, Persian speedwell (Veronica persica); conditions: amount of applied herbicide 320 g/ha
Summary of the method: as §1

redroot pigweed [19] = experiment: Test Example 4: herbicidal effect by soil treatment (Table 19, symbol N); assay type: in vivo, redroot pigweed (Amaranthus retroflexus); conditions: amount of applied herbicide 320 g/ha
Summary of the method: as §1

barnyard grass [20] = experiment: Test Example 5: herbicidal effect by foliage application, plastic box (Table 20, symbol H); assay type: in vivo, barnyard grass (Echinochloa crus-galli); conditions: 320 g/ha, foliage application after 14-day growth, evaluated three weeks after application
Summary of the method: as §2

Chinese sprangletop = experiment: Test Example 3: herbicidal effect by foliage application, Wagner pot (Table 18, symbol D); assay type: in vivo, chinese sprangletop (Leptochloa chinensis); conditions: 320 g/ha
Summary of the method: as §3

chickweed [21] = experiment: Test Example 4: herbicidal effect by soil treatment (Table 19, symbol P); assay type: in vivo, common chickweed (Stellaria media); conditions: amount of applied herbicide 320 g/ha
Summary of the method: as §1

windgrass [22] = experiment: Test Example 5: herbicidal effect by foliage application, plastic box (Table 20, symbol L); assay type: in vivo, windgrass (Apera spica-venti); conditions: 320 g/ha, foliage application after 14-day growth, evaluated three weeks after application
Summary of the method: as §2

persian speedwell [23] = experiment: Test Example 5: herbicidal effect by foliage application, plastic box (Table 20, symbol R); assay type: in vivo, Persian speedwell (Veronica persica); conditions: 320 g/ha, foliage application after 14-day growth, evaluated three weeks after application
Summary of the method: as §2

barnyard grass [24] = experiment: Test Example 3: herbicidal effect by foliage application, Wagner pot (Table 18, symbol H); assay type: in vivo, barnyard grass (Echinochloa crus-galli); conditions: 320 g/ha
Summary of the method: as §3

green foxtail [25] = experiment: Test Example 5: herbicidal effect by foliage application, plastic box (Table 20, symbol G); assay type: in vivo, green foxtail (Setaria viridis); conditions: 320 g/ha, foliage application after 14-day growth, evaluated three weeks after application
Summary of the method: as §2

SMILES	Herbicidal effect by soil treatment, L: windgrass (windgrass [1])	Herbicidal effect by soil treatment, M: velvetleaf (velvetleaf [2])	herbicidal effect on F: southern crabgrass (evaluation grade 0-5) (southern crabgrass [3])	herbicidal effect on P: chickweed (evaluation grade 0-5) (chickweed [4])	Herbicidal effect by soil treatment, F: southern crabgrass (southern crabgrass [5])	herbicidal effect on M: velvetleaf (evaluation grade 0-5) (velvetleaf [6])	Herbicidal effect by soil treatment, I: wild oat (wild oat [7])	Herbicidal effect by soil treatment, G: green foxtail (green foxtail [8])	herbicidal effect on J: blackgrass (evaluation grade 0-5) (blackgrass [9])	herbicidal effect on rice flat sedge (E) (rice flat sedge)	herbicidal effect on I: wild oat (evaluation grade 0-5) (wild oat [10])	Herbicidal effect by soil treatment, H: barnyard grass (barnyard grass [11])	Herbicidal effect by soil treatment, K: Italian ryegrass (Italian ryegrass [12])	Herbicidal effect by soil treatment, J: blackgrass (blackgrass [13])	herbicidal effect on K: Italian ryegrass (evaluation grade 0-5) (Italian ryegrass [14])	herbicidal effect on O: lambsquarters (evaluation grade 0-5) (lambsquarters [15])	Herbicidal effect by soil treatment, O: lambsquarters (lambsquarters [16])	herbicidal effect on N: redroot pigweed (evaluation grade 0-5) (redroot pigweed [17])	Herbicidal effect by soil treatment, R: persian speedwell (persian speedwell [18])	Herbicidal effect by soil treatment, N: redroot pigweed (redroot pigweed [19])	further results
Cc1nn(C)c(=O)c(-c2c(-c3ccc(OC(F)(F)F)cc3)sc3c(F)cccc23)c1O [4-048]	0 (Herbicidal rate of 5% or less (almost no effect))	0 (Herbicidal rate of 5% or less (almost no effect))	1 (Herbicidal rate of 5% or more and less than 20%)	5 (Herbicidal rate of 90% or more (almost completely withered))	1 (Herbicidal rate of 5% or more and less than 20%)	3 (Herbicidal rate of 40% or more and less than 70%)	0 (Herbicidal rate of 5% or less (almost no effect))	0 (Herbicidal rate of 5% or less (almost no effect))	0 (Herbicidal rate of 5% or less (almost no effect))	5 (Herbicidal rate of 90% or more (almost completely withered))	3 (Herbicidal rate of 40% or more and less than 70%)	2 (Herbicidal rate of 20% or more and less than 40%)	0 (Herbicidal rate of 5% or less (almost no effect))	0 (Herbicidal rate of 5% or less (almost no effect))	4 (Herbicidal rate of 70% or more and less than 90%)	3 (Herbicidal rate of 40% or more and less than 70%)	1 (Herbicidal rate of 5% or more and less than 20%)	5 (Herbicidal rate of 90% or more (almost completely withered))	5 (Herbicidal rate of 90% or more (almost completely withered))	3 (Herbicidal rate of 40% or more and less than 70%)	herbicidal effect on H: barnyard grass (evaluation grade 0-5) (barnyard grass [20]): 5 (Herbicidal rate of 90% or more (almost completely withered)); herbicidal effect on Chinese sprangletop (D) (Chinese sprangletop): 5 (Herbicidal rate of 90% or more (almost completely withered)); Herbicidal effect by soil treatment, P: chickweed (chickweed [21]): 1 (Herbicidal rate of 5% or more and less than 20%); herbicidal effect on L: windgrass (evaluation grade 0-5) (windgrass [22]): 5 (Herbicidal rate of 90% or more (almost completely withered)); herbicidal effect on R: persian speedwell (evaluation grade 0-5) (persian speedwell [23]): 5 (Herbicidal rate of 90% or more (almost completely withered)); herbicidal effect on barnyard grass (H) (barnyard grass [24]): 5 (Herbicidal rate of 90% or more (almost completely withered)); herbicidal effect on G: green foxtail (evaluation grade 0-5) (green foxtail [25]): 5 (Herbicidal rate of 90% or more (almost completely withered))
CCCC(=O)Oc1c(C)nn(C)c(=O)c1-c1c(-c2ccccc2F)sc2c(Cl)cccc12 [4-059]	0 (Herbicidal rate of 5% or less (almost no effect))	0 (Herbicidal rate of 5% or less (almost no effect))	0 (Herbicidal rate of 5% or less (almost no effect))	5 (Herbicidal rate of 90% or more (almost completely withered))	0 (Herbicidal rate of 5% or less (almost no effect))	3 (Herbicidal rate of 40% or more and less than 70%)	0 (Herbicidal rate of 5% or less (almost no effect))	0 (Herbicidal rate of 5% or less (almost no effect))	0 (Herbicidal rate of 5% or less (almost no effect))	4 (Herbicidal rate of 70% or more and less than 90%)	1 (Herbicidal rate of 5% or more and less than 20%)	0 (Herbicidal rate of 5% or less (almost no effect))	0 (Herbicidal rate of 5% or less (almost no effect))	0 (Herbicidal rate of 5% or less (almost no effect))	0 (Herbicidal rate of 5% or less (almost no effect))	2 (Herbicidal rate of 20% or more and less than 40%)	0 (Herbicidal rate of 5% or less (almost no effect))	3 (Herbicidal rate of 40% or more and less than 70%)	4 (Herbicidal rate of 70% or more and less than 90%)	0 (Herbicidal rate of 5% or less (almost no effect))	herbicidal effect on H: barnyard grass (evaluation grade 0-5) (barnyard grass [20]): 0 (Herbicidal rate of 5% or less (almost no effect)); herbicidal effect on Chinese sprangletop (D) (Chinese sprangletop): 4 (Herbicidal rate of 70% or more and less than 90%); Herbicidal effect by soil treatment, P: chickweed (chickweed [21]): 4 (Herbicidal rate of 70% or more and less than 90%); herbicidal effect on L: windgrass (evaluation grade 0-5) (windgrass [22]): 0 (Herbicidal rate of 5% or less (almost no effect)); herbicidal effect on R: persian speedwell (evaluation grade 0-5) (persian speedwell [23]): 4 (Herbicidal rate of 70% or more and less than 90%); herbicidal effect on barnyard grass (H) (barnyard grass [24]): 4 (Herbicidal rate of 70% or more and less than 90%); herbicidal effect on G: green foxtail (evaluation grade 0-5) (green foxtail [25]): 0 (Herbicidal rate of 5% or less (almost no effect))
